Where “and” joins values, the source holds several entries; their conditions need not be identical. Equal entries are not always repeated. Each block holds one molecule with its values, some of them ahead of it. Ends that are not written are not given here. Peptide text beside a SMILES is read from it. * marks the point of attachment. Biotin = O=C1N[C@H]2[C@H](CS[C@H]2CCCCC(=O)*)N1
Experiments:
Assay in all cases: SPR binding of MBP-PDZ analyte to immobilised biotinylated peptides
SCRIB-4/4 PDZ domain = target: T1, SCRIB-4/4 PDZ domain (Homo sapiens, UniProt Q14160); settings: for norm. RU at 10 µM: SPR Req at 10 µM MBP-PDZ, normalised for analyte molecular weight and immobilised ligand; for Kd: tentative KD, SPR Biacore 2000, 25 C, steady state, 1:1 binding isotherm, MBP-PDZ 0-30 µM, to be considered with caution
T1 construct: residues 997–1093, 1097–1193 and 997–1193 of human SCRIB (Uniprot acc.: Q14160-1); made in house; host or cells: E. coli BL21 DE3
T1 sequence (Q14160 1097-1193 isoform Q14160-1): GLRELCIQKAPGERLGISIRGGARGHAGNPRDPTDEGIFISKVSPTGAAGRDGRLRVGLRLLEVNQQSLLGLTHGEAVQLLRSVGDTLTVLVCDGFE
Procedure: (§1) We opted for the surface plasmon resonance (SPR) method to measure these 190 (19 proteins×2 peptide versions×5 PDZ constructs) interactions. In SPR various concentrations of “analytes” (here, PDZ domains fused to the Maltose Binding Protein (MBP)) flow over surfaces presenting attached “ligands” (here, biotinylated peptides). The amount of analyte interacting with the ligand is measured and quantified in response units (RU). The intensity of this signal is proportional to the binding strength of the assayed interaction (Figure 5A). K [drawing 13] were obtained using a 1∶1 interaction model. However, these calculated K [drawing 14] were rather inaccurate especially for weak interactions. Therefore, we preferred to rank the binding strengths of the 190 interactions using normalised RU signals at equilibrium ( [drawing 15] ) rather than K [drawing 16] (see Methods for details). These normalised [drawing 17] values were plotted in form of a heat map (Figure 5B).
(§2) The cDNA encoding residues 448–572 and 613–752 of mouse MAGI-1 (UniProt acc.: Q6RHR9-1) encoding for MAGI1-2/6 (100% identical to human MAGI1-2/6) and MAGI1-3/6 (99% identical to human MAGI1-3/6) PDZ domains, respectively, were inserted into the NcoI/KpnI sites of the pETM-41 expression vector (EMBL) containing a 6×His-MBP tag followed by a TEV protease cleavage site. A similar cloning strategy was adopted for cDNA bearing residues 997–1093, 1097–1193 and 997–1193 of human SCRIB (Uniprot acc.: Q14160-1) encoding for SCRIB-3/4, SCRIB-4/4 PDZ domains and SCRIB-34/4 tandem PDZ construct, respectively.
(§3) Data were collected on a Biacore 2000 instrument (Biacore AB/GE Healthcare Bio-Sciences Corp., Piscataway, NJ, USA) at 25 [drawing 74] C. SPR experiments (ligand immobilisation and binding measurements) have been performed as described in Fournane et al.. Briefly, biotinylated peptides (instead of GST-fused recombinant peptides) were immobilised on CM5 sensorchips on which Neutravidin was previously attached. The MBP-PDZ domain analyte was injected at 8 to 10 different concentrations ranging from 0 up to 30 [drawing 75] M. Data were processed using the BiaEvaluation 3.2 software (Biacore AB/GE Healthcare Bio-Sciences Corp.) using “double referencing” [78] in which sensorgrams were corrected for buffer effects and bulk refractive index changes.
(§4) The steady-state binding signal ( [drawing 76] ) was derived by averaging the signals in a five second window at equilibrium. Steady-state analysis was performed by fitting the average signal [drawing 77] as a function of total MBP-PDZ concentrations, assuming a simple 1∶1 interaction binding isotherm model. […] Reasons for this inaccuracy are likely to be the following: 1. As previously described, several repetitions of all the measurements are required to determine accurate K [drawing 81] . In our case, such repetitions were not achievable in reasonable time due to the large amount of interactions measured in this study. 2. The highest injected analyte concentration restricts the maximal K [drawing 82] (weakest interaction) that can be accurately obtained. 3. A K [drawing 83] is estimated based on a mathematical extrapolation of observed [drawing 84] signals leading to additional uncertainty. Based on these reasons, we considered the calculated K [drawing 85] not as accurate enough to be used for absolute binding strength comparison in this study. We rather performed a relative analysis of binding strengths using directly [drawing 86] signals which are not biased by any mathematical assumption. We focussed on [drawing 87] signals obtained at 10 [drawing 88] M MBP-PDZ concentration, which have been systematically measured in duplicate. The [drawing 89] signal is directly proportional to the molecular weight of the analyte and the amount of immobilised ligand. Therefore, the [drawing 90] signals were normalised taking those into account before being used for binding strength comparison. […]

[1] = target: T2, SCRIB-34/4 tandem PDZ construct (Homo sapiens, UniProt Q14160); settings: for norm. RU at 10 µM: SPR Req at 10 µM MBP-PDZ, normalised for analyte molecular weight and immobilised ligand; for Kd: tentative KD, SPR Biacore 2000, 25 C, steady state, 1:1 binding isotherm, MBP-PDZ 0-30 µM, to be considered with caution
T2 construct: residues 997–1093, 1097–1193 and 997–1193 of human SCRIB (Uniprot acc.: Q14160-1); made in house; host or cells: E. coli BL21 DE3
T2 sequence (Q14160 997-1193 isoform Q14160-1): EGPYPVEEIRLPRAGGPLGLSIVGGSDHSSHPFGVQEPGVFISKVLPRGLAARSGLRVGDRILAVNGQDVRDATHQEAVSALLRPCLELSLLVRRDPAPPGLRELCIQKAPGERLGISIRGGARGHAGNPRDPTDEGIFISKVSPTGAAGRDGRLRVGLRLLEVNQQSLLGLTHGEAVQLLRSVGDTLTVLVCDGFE
Procedure: as §1, §2, §3, §4

SCRIB-3/4 PDZ domain = target: T3, SCRIB-3/4 PDZ domain (Homo sapiens, UniProt Q14160); settings: for norm. RU at 10 µM: SPR Req at 10 µM MBP-PDZ, normalised for analyte molecular weight and immobilised ligand; for Kd: tentative KD, SPR Biacore 2000, 25 C, steady state, 1:1 binding isotherm, MBP-PDZ 0-30 µM, to be considered with caution
T3 construct: cDNA bearing residues 997–1093, 1097–1193 and 997–1193 of human SCRIB (Uniprot acc.: Q14160-1); made in house; host or cells: E. coli BL21 DE3
T3 sequence (Q14160 997-1093 isoform Q14160-1): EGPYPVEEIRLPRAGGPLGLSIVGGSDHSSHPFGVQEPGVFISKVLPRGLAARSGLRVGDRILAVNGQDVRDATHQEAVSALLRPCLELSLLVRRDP
Procedure: as §1, §2, §3, §4

MAGI1-3/6 PDZ domain = target: T4, MAGI1-3/6 PDZ domain (Mus musculus, UniProt Q6RHR9); settings: for norm. RU at 10 µM: SPR Req at 10 µM MBP-PDZ, normalised for analyte molecular weight and immobilised ligand; for Kd: tentative KD, SPR Biacore 2000, 25 C, steady state, 1:1 binding isotherm, MBP-PDZ 0-30 µM, to be considered with caution
T4 construct: The cDNA encoding residues 448–572 and 613–752 of mouse MAGI-1 (UniProt acc.: Q6RHR9-1); made in house; host or cells: E. coli BL21 DE3
T4 sequence (Q6RHR9 613-752): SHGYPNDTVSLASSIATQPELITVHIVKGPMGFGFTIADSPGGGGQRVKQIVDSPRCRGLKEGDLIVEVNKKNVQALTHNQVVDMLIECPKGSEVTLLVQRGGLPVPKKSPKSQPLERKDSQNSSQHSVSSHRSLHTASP
Procedure: as §1, §2, §3, §4

MAGI1-2/6 PDZ domain = target: T5, MAGI1-2/6 PDZ domain (Mus musculus, UniProt Q6RHR9); settings: for norm. RU at 10 µM: SPR Req at 10 µM MBP-PDZ, normalised for analyte molecular weight and immobilised ligand
T5 construct: The cDNA encoding residues 448–572 and 613–752 of mouse MAGI-1 (UniProt acc.: Q6RHR9-1) encoding for MAGI1-2/6; made in house; host or cells: E. coli BL21 DE3
T5 sequence (Q6RHR9 448-572): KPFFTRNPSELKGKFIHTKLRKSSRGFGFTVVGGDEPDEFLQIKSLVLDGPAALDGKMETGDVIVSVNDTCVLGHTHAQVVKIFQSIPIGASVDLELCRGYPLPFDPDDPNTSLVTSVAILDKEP
Procedure: as §1, §2, §3, §4

Molecule: CC(C)[C@H](NC(=O)[C@H](CCC(=O)O)NC(=O)[C@@H](NC(=O)[C@H](CCC(=O)O)NC(=O)[C@H](CCCNC(=N)N)NC(=O)CNC(=O)[C@H](C)NC(=O)CNC(=O)[C@H](CO)NC(=O)CNC(=O)CCCC[C@@H]1SC[C@@H]2NC(=O)N[C@@H]21)[C@@H](C)O)C(=O)O [TAX1_05] (Biotin-GSGAGRETEV-OH)
Kd (SCRIB-4/4 PDZ domain): 50 µM
Kd [1]: 1 µM
Kd (SCRIB-3/4 PDZ domain): 96 µM
Kd (MAGI1-3/6 PDZ domain): 75 µM
Kd (MAGI1-2/6 PDZ domain; tentative KD, SPR Biacore 2000, 25 C, steady state, 1:1 binding isotherm, MBP-PDZ 0-30 µM, to be considered with caution): 33 µM

Molecule: EKPIDSETKM [GLAST_10, long peptide: last ten wild type C-terminal residues of Excitatory amino acid transporter 1, biotinylated]
norm. RU at 10 µM (SCRIB-4/4 PDZ domain): 0.0 RU
norm. RU at 10 µM [1]: 0.0 RU
norm. RU at 10 µM (SCRIB-3/4 PDZ domain): 0.0 RU
norm. RU at 10 µM (MAGI1-3/6 PDZ domain): 0.0 RU
norm. RU at 10 µM (MAGI1-2/6 PDZ domain): 0.0 RU

Molecule: RSSRTRRETQV [16E6L/V, reference compound]
Kd (SCRIB-4/4 PDZ domain): 47 µM and 55 µM
Kd [1]: 3 µM and 4 µM
Kd (SCRIB-3/4 PDZ domain): 18 µM and 41 µM and 32 µM
Kd (MAGI1-3/6 PDZ domain): 69 µM and 76 µM and 202 µM

The next lines start with the values.

norm. RU at 10 µM (SCRIB-4/4 PDZ domain): 0.0 RU
norm. RU at 10 µM [1]: 70.8 RU
norm. RU at 10 µM (SCRIB-3/4 PDZ domain): 57.5 RU
norm. RU at 10 µM (MAGI1-3/6 PDZ domain): 0.0 RU
norm. RU at 10 µM (MAGI1-2/6 PDZ domain): 0.0 RU
Molecule: C[C@H](NC(=O)[C@@H](NC(=O)CCCC[C@@H]1SC[C@@H]2NC(=O)N[C@@H]21)[C@@H](C)O)C(=O)N[C@@H](CO)C(=O)N1CCC[C@H]1C(=O)N[C@@H](C)C(=O)N[C@@H](CCCCN)C(=O)N[C@@H](CCC(=O)O)C(=O)N[C@H](C(=O)N[C@@H](CO)C(=O)N[C@@H](Cc1ccccc1)C(=O)O)[C@@H](C)O [GLUT7_10] (Biotin-TASPAKETSF-OH)

norm. RU at 10 µM (SCRIB-4/4 PDZ domain): 0.0 RU
norm. RU at 10 µM [1]: 88.1 RU
norm. RU at 10 µM (SCRIB-3/4 PDZ domain): 22.7 RU
norm. RU at 10 µM (MAGI1-3/6 PDZ domain): 10.9 RU
norm. RU at 10 µM (MAGI1-2/6 PDZ domain): 54.7 RU
Molecule: CC(C)[C@H](NC(=O)[C@@H](NC(=O)[C@@H](NC(=O)[C@H](CCC(=O)O)NC(=O)[C@H](CCCCN)NC(=O)[C@H](CO)NC(=O)[C@H](CC(N)=O)NC(=O)[C@H](CCCNC(=N)N)NC(=O)[C@H](CCCCN)NC(=O)[C@@H](NC(=O)CCCC[C@@H]1SC[C@@H]2NC(=O)N[C@@H]21)C(C)C)[C@@H](C)O)C(C)C)C(=O)O [MARCH3_10] (Biotin-VKRNSKETVV-OH)
